In patent US20050271630A1, “Method for treating cancer” (MEDINET Co., Ltd., priority 2004, published 2005):
“And” between values parts separate entries of the source, which are not always exact repeats. Equal values may be shown once. “Also recorded” adds a separate entry of the source. Where a name gives a salt, the structure may show the parent alone. Read-outs that look alike come from different tables or passages of the source.

Legend:
[1] = system: non-small cell lung carcinoma; experiment: Activated autologous lymphocyte therapy combined with gefitinib or conventional chemotherapy, 15 cases at Seta Clinic; format: in vivo, human
Protocol: Next, studies were conducted for comparing a combination therapy with a conventional chemotherapy other than gefitinib and the method of the present invention.
The response ratio was 46.7%. […] The effective ratio including this was 53.3%. The highest number of administrations was 35, and 10.4 times of treatments on average were conducted.

[2] = system: non-small cell lung carcinoma
[3] = gefitinib alone, 104 cases, Phase 2 study; cited from earlier work
[4] = system: lung carcinoma (adenocarcinoma); experiment: Single case: CD3-LAK plus IRESSA (gefitinib), person; conditions: for Response at examination: gefitinib 250 mg/day + CD3-LAK
[5] = system: GIST (gastrointestinal stromal tumors); conditions: for Side effects: imatinib mesylate 200 mg/day
[6] = 7 chemotherapy / 8 gefitinib cases
[7] = 7 conventional chemotherapy cases / 8 gefitinib cases, with activated autologous lymphocyte therapy
[8] = of 18 cases, gefitinib + CD3-LAK
[9] = of 18 cases, gefitinib + activated autologous lymphocyte therapy

## COc1cc2ncnc(Nc3ccc(F)c(Cl)c3)c2cc1OCCCN1CCOCC1 [gefitinib]
[1]; [6]
  Evaluation: Effective (percent): (62.5%)
  Evaluation: No effect (percent): (37.5%)
[1]; [7]
  The number of cases, Complete response: 0 cases
  The number of cases, Long no change: 0 cases
  The number of cases, No change: 3 cases
  The number of cases, Partial response: 5 cases
  The number of cases, Progressive disease: 0 cases
[1]; complete + partial response + long no change, 7 chemotherapy / 8 gefitinib cases
  Evaluation: Effective (number of cases): Effective 5 cases
[1]; gefitinib group (cases 8-15)
  Cases still alive: 7 cases
  Longest period of survival confirmed: 743 days
[1]; individual cases 1-15, at end of trace period
  Outcome at the end: Alive
[1]; no change + progressive disease, 7 chemotherapy / 8 gefitinib cases
  Evaluation: No effect (number of cases): 3 cases
[2]; 18 cases
  Evaluation: No effect (percent): (38.9%)
[2]; 18 cases, gefitinib + CD3-LAK
  New side effect caused by the combined use of the activated autologous lymphocytes: no new side effect
  Side effects: diarrhea, percent: 33%
  Side effects: nausea, percent: 17%
  Side effects: skin symptoms (eruption and dry skin), percent: 89%
[2]; individual cases 1-18, at end of trace period, gefitinib 250 mg/day + CD3-LAK
  Outcome at the end: Alive (17×) and Dead
[2]; of 18 cases, complete + partial response
  Evaluation: Effective (number of cases): Effective 11 cases
[2]; [8]
  Side effects: diarrhea, cases: 6 cases
  Side effects: nausea, cases: 3 cases
  Side effects: skin symptoms (eruption and dry skin), cases: 16 cases
[2]; [9]
  The number of cases, No change: 6 cases
  The number of cases, Partial response: 11 cases
  The number of cases, Progressive disease: 1 cases
[2]; of 18 cases, no change + progressive disease
  Evaluation: No effect (number of cases): No effect 7 cases
[3]
  Response ratio: 18%
[4]; CT at examination on May 9 versus start of combination therapy (FIGS. 2 and 3)
  Lesioned site in CT image: almost disappeared
[4]; examination on Feb. 13, 2003, therapy started Oct. 2002
  Response at examination: considerable response
[4]; examination on May 9 (2003)
  Response at examination: remarkable response

## Cc1ccc(NC(=O)c2ccc(CN3CCN(C)CC3)cc2)cc1Nc1nccc(-c2cccnc2)n1 [imatinib mesylate]
[5]; Patient 2
  Duration of partial response since the start of the combination therapy: 21 months
  Increase in liver enzyme levels, GOT: 58 U/ml
  Increase in liver enzyme levels, GPT: 43 U/ml
  Side effects: itching with eczema of the face and limbs; also recorded: stomach discomfort; also recorded: diarrhea
[5]; Patient 2, three months after starting the therapy, 151 U/ml at start
  CA12-5 level: 26 U/ml
[5]; Patient 3
  Time without tumor progression since start of combination therapy: 25 months
[5]; Patient 3, combination therapy
  Side effects: diarrhea
[5]; Patient 3, imatinib mesylate 100 to 300 mg per day oral
  Side effects at the time of administration: side effects on their digestive organs
[5]; Patient 3, one month after the MRI (one year and two months)
  Change of foci: decreased slightly
[5]; Patient 3, one year and five months after starting the therapy
  Interpretation of PET: no extraordinary accumulation
[5]; Patient 3, one year and one month after starting the combination therapy, two foci
  Size of foci in MRI: 1.1 cm and 0.6 cm
[5]; Patient 3, since the combination therapy was started
  Tumor progression: had not progressed
